According to publication PMC12423301, “Astrocytic monoamine oxidase B (MAOB)–gamma-aminobutyric acid (GABA) axis as a molecular brake on repair following spinal cord injury” (Signal Transduction and Targeted Therapy, 2025):
Entries after “also recorded” stand apart in the source; their conditions may differ.

What was measured:
rat SCI model = experiment: EC / LFB staining of rat spinal cord tissue; type: in vivo, Sprague-Dawley (SD) rats
Method: EC staining was performed as previously described.[71] The tissue sections were placed on a microscope slide, allowed to dry for 2 h, and then immersed in acetone for 5 min. The slides were incubated for 10 min at 22 ± 2 °C and then treated with EC solution (MERCK, Kenilworth, NJ, USA) for 30 min at 22 ± 2 °C. After the sections were rinsed with running water, they were placed on 5% iron alum (Sigma-Aldrich, F3629) until the gray matter was observed. The sections were differentiated using borax-ferricyanide solution (Borax, Sigma-Aldrich, 71997; Potassium ferricyanide, Sigma-Aldrich, 702587) and dehydrated using graded ethanol solutions of 70%, 90%, and 100% which were changed twice. The sections were mounted with permanent mounting medium (Fisher Scientific, Hampton, NH, USA) and finally observed under a light microscope (DM 2500, Leica, Wetzlar, Germany). LFB staining was performed as previously described.[70] The myelin sheath of axons in the tissue sections were stained with 1% luxol fast blue (Sigma-Aldrich, L0294) at 60 °C overnight. The sections were rinsed with lithium carbonate (Sigma-Aldrich, 255823) solution and differentiated by 70% alcohol and then observed under a light microscope (IX71, Olympus, Tokyo, Japan).

[1] = Blood chemistry and liver function in monkey SCI model; type: in vivo, cynomolgus macaques (Macaca fascicularis)
Method: Blood samples were collected from the animals via the radial or femoral vein at three time points: 2 days, 2 weeks, and 5 weeks post-injury. All the animals were fasted for approximately 16 h prior to each collection, with water provided ad libitum. Approximately 2.0 mL of blood was drawn and placed into tubes without anticoagulant and left at room temperature for at least 90 min. The samples were then centrifuged at 3000 rpm for 10 min at room temperature to separate the serum. Finally, the serum samples were analyzed for creatinine (CREA), alkaline phosphatase (ALP), gamma-glutamyl transpeptidase (GGT), total bilirubin (TBIL), ALB, ALT, and aspartate aminotransferase (AST) levels. These biochemical parameters were measured using a TBA 120FR chemistry analyzer (Toshiba Co.).

APP/PS1 transgenic mice = experiment: Cognitive tests in APP/PS1 transgenic mice; type: in vivo, mouse
[2] = 14C radiolabeled KDS2010 disposition and excretion in rats; type: in vivo, SD rats
Method: Protocol No. NB_KDS_ADP1_21 Confidential
In a pharmacokinetic study, plasma PK parameters were measured after a single oral administration of
5.2. Rationale for Selection of Dose and Duration of Dosing
According to the FDA guideline (Estimating the Maximum Safe Starting Dose in Initial Clinical Trials for […]

[3] = BDC rats, until 48 hours after oral administration
[4] = up to 168 hours after administration

CS(=O)(=O)O.C[C@H](NCc1ccc(-c2ccc(C(F)(F)F)cc2)cc1)C(N)=O [KDS2010, (S)-2-(((4’-Trifluoromethylbiphenyl-4-yl)methyl)amino)propanamide methane-sulfonate]
tissue recovery (total cord area, myelinated area) (rat SCI model; 10, 20, and 30 mpk, PI 10w): significant tissue recovery | total spinal cord, myelinated, gray matter areas and cavity size (EC staining) (rat SCI model; SCI + KDS 2w vs SCI + V, PI 10w): significantly recovered | total spinal cord and myelinated areas (rat SCI model; SCI + KDS 1 d/Re, PI 10w): significantly recovered | total spinal cord and myelinated areas (rat SCI model; SCI+KDS 6w vs SCI+V, PI 14w): tendency toward larger; also recorded: increasing trend | signs of hepatic and muscle stress ([1]; 3 mpk): no signs of stress | creatine kinase (CK) and alanine transaminase (ALT) levels ([1]; 10 mpk, PI 2w): transient increases | CK and ALT levels ([1]; 10 mpk, PI 5w): returned to normal | albumin (ALB) levels ([1]; 10 mpk, PI 5w): moderate reduction | No-Observed-Adverse-Effect Level (NOAEL) ([1]; monkey SCI model): 3 mpk | passive avoidance test (APP/PS1 transgenic mice; 1 mg/kg and 10 mg/kg, repeated administration for 2 weeks, vs APP/PS1 control group): statistically significant cognitive function improvement effect | Morris water maze test (APP/PS1 transgenic mice; 10 mg/kg for 27 to 37 days): statistically significant improvement | cognitive function (APP/PS1 transgenic mice; 4-week repeated dosing test): statistically significant cognitive function effect | administered radioactivity present in the body (carcass) ([2]; 14C radiolabeled, oral 10 mg/kg): 44.1% | excreted in bile ([2]; BDC (bile duct-cannulated) rats, until 48 hours after oral administration): 71.5% | excreted in feces [2, 3]: 6.0% | excreted in urine [2, 3]: 6.8% | excretion to air through respiration ([2]; until 48 hours after administration): about 0.0% | excreted in feces [2, 4]: 48.5% | excreted in urine [2, 4]: 6.9%
